Tests used:
Bcr-AblE255K = assay: Western analyses of Bcr-Abl levels, BaF3/Bcr-AblE255K cells; assay type: cell-based, mouse
[1] = system: primary, imatinib-resistant CML cells; assay: Loss of viability / apoptosis of primary imatinib-resistant CML-BC cells; assay type: cell-based, human; details: for sensitivity of sample 7: Compound (II) at lower concentrations; for apoptosis of cells: sample no. 9 (Bcr-AblT315I)
Procedure: Primary CML-BC cells and NBMCs: […] Additionally, NBMCs are harvested and purified. Informed consents are signed by all patients to allow use of their cells for these experiments, as part of a clinical protocol approved by the University of South Florida Institutional Review Board (IRB). Sequencing of Bcr-Abl in CML-BC cells: […] Total RNA (5 μg) is reverse transcribed with a first-strand cDNA synthesis kit (Invitrogen). Reverse transcribed cDNAs are used in polymerase chain reaction (PCR) amplifications to amplify a fragment of Bcr-Abl that included the Bcr junction region and the c-Abl kinase region. The amplified sequences are agarose gel-purified and cloned into pCR4-TOPO plasmid. The resulting plasmids are transformed into Escherichia coli Mach1 cells (Invitrogen) overnight at 37° C. Ten colonies for each sample are checked by colony PCR and subcultured for plasmid isolation. Isolated plasmids are sequence verified with T3 and T7 primers for c-Abl kinase domain mutations. Assessment of percentage of non-viable cells: Cells are stained with trypan blue (Sigma, St Louis, Mo.). […] Apoptosis assessment by annexin V staining: Untreated and drug-treated cells are stained with annexin V and PI, and the percentage of apoptotic cells is determined by flow cytometry. Analysis of synergism between Compound (II) and Compound (V) in inducing apoptosis of K562 and LAMA-84 cells is performed by Median Dose-Effect analysis of Chou and Talalay using the commercially-available software (Calcusyn; Biosoft, Ferguson, Mo.).

Bcr-Abl [2] = assay: Western analyses of Bcr-Abl levels, BaF3/Bcr-Abl cells; assay type: cell-based, mouse
NBMCs = assay: Loss of survival of NBMCs; assay type: cell-based; details: for loss of survival of NBMCs: 48 hours, mean of 2 samples
From the text: Primary CML-BC cells and NBMCs: Leukemia cells from the peripheral blood and/or bone marrow of 10 patients who had met the clinical criteria of imatinib-resistant Ph chromosome-positive CML-BC (Imatinib-resistant Philadelphia chromosome-positive chromic myeloid leukaemia-blast crisis) are harvested and purified. Additionally, NBMCs are harvested and purified. Informed consents are signed by all patients to allow use of their cells for these experiments, as part of a clinical protocol approved by the University of South Florida Institutional Review Board (IRB).
Assessment of percentage of non-viable cells: Cells are stained with trypan blue (Sigma, St Louis, Mo.).

LAMA-84 cells = assay: Apoptosis assessment by annexin V staining, LAMA-84 cells; assay type: cell-based, human; details: for apoptosis of LAMA-84 cells: agent alone
Procedure: (§1) Cell lines and cell culture: Bcr-Abl-expressing, CML LAMA-84 and K562 cells are obtained from American Tissue Culture Collection (Manassas, Va.) and maintained in culture in RPMI medium containing 10% fetal bovine serum and passaged twice a week. Mouse pro-B BaF3 cells are cultured in complete RPMI-1640 media supplemented with 10% WEHI medium as the source of IL-3. For the studies described herein, logarithmically growing cells are exposed to the designated concentrations of Compound (II) and/or Compound (V). Following these treatments, cells or cell pellets are washed free of the drug(s) prior to the performance of the studies. Apoptosis assessment by annexin V staining: Untreated and drug-treated cells are stained with annexin V and PI, and the percentage of apoptotic cells is determined by flow cytometry. Analysis of synergism between Compound (II) and Compound (V) in inducing apoptosis of K562 and LAMA-84 cells is performed by Median Dose-Effect analysis of Chou and Talalay using the commercially-available software (Calcusyn; Biosoft, Ferguson, Mo.).

BaF3/Bcr-AblT315I cells = assay: Apoptosis of BaF3 cells expressing Bcr-AblT315I; assay type: cell-based, mouse
Procedure: Mouse pro-B BaF3 cells are cultured in complete RPMI-1640 media supplemented with 10% WEHI medium as the source of IL-3. […] Following these treatments, cells or cell pellets are washed free of the drug(s) prior to the performance of the studies.
Site-directed mutagenesis and nucleofection: Three p210 Bcr-Abl constructs are used in the current studies. The p210 Bcr-Abl WT and p210 Bcr-Abl (T315I) constructs are generated. […] For nucleofection of the p210 Bcr-Abl constructs into BaF3 cells, 5 million BaF3 cells in 100 μL Nucleofector solution V (Amaxa, Gaithersburg, Md.) are mixed with 5 μg p210 Bcr-Abl WT, p210 Bcr-Abl (T315I), or p210 Bcr-Abl (E255K) in a cuvette and nucleofected using program G-16. Following nucleofection, the cells are incubated at a concentration of 1×10^6 cells/mL in complete RPMI-1640 media supplemented with 10% WEHI medium as the source of IL-3, overnight, to recover. Stable transfectants of BaF3 cells expressing the WT or mutant form of Bcr-Abl (i.e., T315I or E255K) are maintained in RPMI 1640 supplemented with 10% serum, 1.0 U/mL penicillin, 1 μg/mL streptomycin and 0.75 mg/mL G418. Stably expressing cells are then further selected by removal of IL-3. After confirmation of Bcr-Abl expression by immunoblot analysis, cells are used for the studies described herein.

K562 cells = assay: Apoptosis assessment by annexin V staining, K562 cells; assay type: cell-based, human; details: for apoptosis of K562 cells: agent alone
Procedure: as §1

Bcr-AblT315I = assay: Western analyses of Bcr-Abl levels, BaF3/Bcr-AblT315I cells; assay type: cell-based, mouse
BaF3/Bcr-AblE255K cells = assay: Apoptosis of BaF3 cells expressing Bcr-AblE255K; assay type: cell-based, mouse
From the text: (§2) Cell lines and cell culture: Bcr-Abl-expressing, CML LAMA-84 and K562 cells are obtained from American Tissue Culture Collection (Manassas, Va.) and maintained in culture in RPMI medium containing 10% fetal bovine serum and passaged twice a week. […] Following these treatments, cells or cell pellets are washed free of the drug(s) prior to the performance of the studies.
(§3) Site-directed mutagenesis and nucleofection: Three p210 Bcr-Abl constructs are used in the current studies. The p210 Bcr-Abl WT and p210 Bcr-Abl (T315I) constructs are generated. […] For nucleofection of the p210 Bcr-Abl constructs into BaF3 cells, 5 million BaF3 cells in 100 μL Nucleofector solution V (Amaxa, Gaithersburg, Md.) are mixed with 5 μg p210 Bcr-Abl WT, p210 Bcr-Abl (T315I), or p210 Bcr-Abl (E255K) in a cuvette and nucleofected using program G-16. […] Stably expressing cells are then further selected by removal of IL-3. After confirmation of Bcr-Abl expression by immunoblot analysis, cells are used for the studies described herein.
(§4) Apoptosis assessment by annexin V staining: Untreated and drug-treated cells are stained with annexin V and PI, and the percentage of apoptotic cells is determined by flow cytometry.

Bcr-Abl [3] = assay: Western/immunoblot analyses of Bcr-Abl and downstream signaling proteins, LAMA-84 cells; assay type: cell-based, human; details: agent alone
Procedure: as §2
(§5) Western analyses of proteins: Western analyses are performed using specific antisera or monoclonal antibodies according to previously reported protocols, and the horizontal scanning densitometry is performed on Western blots.
Immunoprecipitation of Bcr-Abl and immunoblot analyses: Following the designated drug treatments, cells are lysed in lysis buffer (20 mM Tris [pH 8], […] sodium chloride, 1% NP40, 0.1 M sodium fluoride, 1 mM PMSF, 1 mM sodium orthovanadate, 2.5 μg/mL leupeptin, 5 μg/mL aprotinin) for 30 minutes on ice, and the nuclear and cellular debris is cleared by centrifugation. Cell lysates (200 μg) are incubated with the Abl-specific monoclonal antibody for 1 hour at 4° C. To this, washed Protein G agarose beads are added and incubated overnight at 4° C. The immunoprecipitates are washed 3 times in the lysis buffer, and proteins are eluted with the SDS sample loading buffer prior to the immunoblot analyses with specific antibodies against anti-Abl or antiphosphotyrosine antibody.

BaF3/Bcr-Abl cells = assay: Apoptosis of BaF3 cells expressing unmutated Bcr-Abl; assay type: cell-based, mouse; details: agent alone
From the text: as §2, §3, §4

Bcr-Abl [4] = assay: Western blot analyses of total cell lysates of primary CML cells; assay type: cell-based, human; details: sample 9; 1000 nM alone
Procedure: Additionally, NBMCs are harvested and purified. Informed consents are signed by all patients to allow use of their cells for these experiments, as part of a clinical protocol approved by the University of South Florida Institutional Review Board (IRB).
as §5

[5] = any of the levels tested, alone

## Cc1[nH]c2ccccc2c1CCNCc1ccc(/C=C/C(=O)NO)cc1 [Compound (V), N-hydroxy-3-[4-[[[2-(2-methyl-1H-indol-3-yl)-ethyl]-amino]methyl]phenyl]-2E-2-propenamide]
Bcr-AblE255K; 50 nM, 24 hours
  Bcr-Abl levels: lowered
[1]
  sensitivity of sample 7: sensitive
[1]; 50 nM alone
  apoptosis of cells: 42.0%
[1]; samples 1 to 7, agent alone
  loss of cell viability: dose dependent
[1]; samples 8, 9, and 10 with Bcr-AblT315I mutation, alone, 48 hours, dose-dependent
  cell viability: markedly inhibited
Bcr-Abl [2]; 50 nM, 24 hours
  Bcr-Abl levels: lowered
NBMCs; 20 nM
  loss of survival of NBMCs: 13.1%
NBMCs; 50 nM
  loss of survival of NBMCs: 15.9%
LAMA-84 cells
  apoptosis of LAMA-84 cells: dose-dependent manner
BaF3/Bcr-AblT315I cells; 50 nM, 48 hours
  apoptosis of BaF3/Bcr-Abl T315I cells: approximately 30%
BaF3/Bcr-AblT315I cells; agent alone
  sensitivity of BaF3/Bcr-AblT315I cells to induced apoptosis: as sensitive as BaF3/Bcr-Abl cells
BaF3/Bcr-AblT315I cells; levels lower than 50 nM
  apoptosis of BaF3/Bcr-Abl T315I cells: less effective
K562 cells
  apoptosis of K562 cells: dose-dependent manner
Bcr-AblT315I; 50 nM, 24 hours
  Bcr-Abl levels: lowered

## Cc1cn(-c2cc(NC(=O)c3ccc(C)c(Nc4nccc(-c5cccnc5)n4)c3)cc(C(F)(F)F)c2)cn1 [Compound (II), 4-methyl-3-[[4-(3-pyridinyl)-2-pyrimidinyl]amino]-N-[5-(4-methyl-1H-imidazol-1-yl)-3-(trifluoromethyl)phenyl]benzamide]
Bcr-AblE255K; agent alone
  levels of p-CrkL: did not affect
Bcr-AblE255K; [5]
  levels of Bcr-Abl: did not lower
BaF3/Bcr-AblE255K cells; 100 nM
  apoptosis of BaF3/Bcr-AblE255K cells: ineffective
BaF3/Bcr-AblE255K cells; 200 nM
  apoptosis of BaF3/Bcr-AblE255K cells: 26.0%
BaF3/Bcr-AblE255K cells; 500 nM
  apoptosis of BaF3/Bcr-AblE255K cells: 43.0%
[1]
  sensitivity of sample 7: relatively resistant
[1]; 2.0 μM
  apoptosis of cells: ineffective
[1]; samples 1 to 7, agent alone
  loss of cell viability: dose dependent
[1]; samples 8, 9, and 10 with Bcr-AblT315I mutation, Compound (II) alone
  loss of cell viability: did not augment
Bcr-Abl [2]; agent alone
  levels of p-CrkL: did not affect
Bcr-Abl [2]; [5]
  levels of Bcr-Abl: did not lower
NBMCs; up to 1.0 μM
  effect against NBMCs: no effect
LAMA-84 cells; LAMA-84 cells
  potency in inducing apoptosis relative to imatinib: approximately 10 fold
LAMA-84 cells
  apoptosis of LAMA-84 cells: dose-dependent manner
Bcr-Abl [3]
  expressions of c-Myc and Bcl-xL: lowered
  levels of Bcr-Abl: without affecting
  levels of p-AKT: inhibited
  levels of p-CrkL: inhibited
  levels of p-STAT5: attenuated
  levels of tyrosine phosphorylated Bcr-Abl: inhibited
  p27 levels: induction
BaF3/Bcr-AblT315I cells; levels as high as 2,000 nM
  apoptosis of BaF3/Bcr-AblT315I cells: resistant
BaF3/Bcr-Abl cells
  apoptosis of BaF3/Bcr-Abl cells: dose-dependent manner
Bcr-Abl [4]
  levels of Bcr-Abl, p-CrkL, and p-STAT5: little effect
K562 cells; K562 cells
  potency in inducing apoptosis relative to imatinib: approximately 10 fold
K562 cells
  apoptosis of K562 cells: dose-dependent manner
Bcr-AblT315I; agent alone
  levels of p-CrkL: did not affect
Bcr-AblT315I; [5]
  levels of Bcr-Abl: did not lower
